The text below walks through data of ChEMBL document CHEMBL1157539, “Thousands of chemical starting points for antimalarial lead identification” (Nature, 2010).

This experiment concerns Plasmodium falciparum. Put plainly: GSK_TCMDC: Inhibition of Plasmodium falciparum 3D7 in whole erythrocytes, using parasite LDH activity as an index of growth. It counts as functional, organism-based. The settings on record: Plasmodium falciparum, 3D7.

As for `COc1ccc(NC(=O)c2ccc(-c3ccc(-c4cccnc4)cc3)c(C)c2)cc1OCCN(C)C`, the XC50 was 201 nM.
As for `CCc1cc([C@H]2O[C@@H](n3cnc4c(NCC(c5ccccc5)c5ccccc5)nc(NCCNc5ccccn5)nc43)[C@H](O)[C@@H]2O)on1`, the XC50 was found to be 891 nM.
`CCOc1ccccc1C1C(C(=O)C(C)(C)C)N2c3ccc(Br)cc3C=CC2C12C(=O)c1ccccc1C2=O` (stereo unspecified) gave an XC50 of 853 nM.
For `CCNc1cc(C)nc(Nc2ccc(NC(=O)c3cccs3)cc2)n1` the value was 1020 nM; for `CC(C)c1ccc(CN2CCC(CNC(=O)c3cc(-c4ccc(N(C)C)cc4)cs3)C2)cc1` (stereo unspecified), 1250 nM; for `Clc1ccc(-c2cnc3ccc(NCCc4cccnc4)nn23)cc1`, 857 nM.
Take `O=C(CSc1cccc[n+]1[O-])c1ccc(Cc2ncc(C(F)(F)F)cc2Cl)s1`: the XC50 is 715 nM.
In the case of `COc1cccc(CCc2ccc(O)c3c2C[C@H]2C[C@H]4[C@H](N(C)C)C(O)=C(C(N)=O)C(=O)[C@@]4(O)C(O)=C2C3=O)c1`, the XC50 is 850 nM.
In turn, `CC(=O)c1ccc2c(c1)C(NC(=O)c1cccc(Cl)c1Cl)C(CO)C(C)(C)O2` (stereo unspecified) displayed an XC50 of 687 nM.
With `CN1CCN(CC(=O)Nc2ccc(-c3ccc(-c4nc5cc(C(F)(F)F)ccc5[nH]4)cc3)cc2)CC1`, the XC50 amounted to 420 nM.
As to `O=C(Nc1cccc(Cl)c1Cl)NC1CCN(Cc2cccc(O)c2)CC1`, the XC50 stood at 799 nM.
Molecule `NC(=O)c1cccc(C(=O)Nc2ccc(-c3cccc(-c4nc5cc(F)ccc5[nH]4)c3)cc2)c1` displayed an XC50 of 865 nM.
Consider `O=C(Cc1c[nH]cn1)Nc1cccc(-c2ccc(-c3nc4cc(F)ccc4[nH]3)cc2)c1`, for which the XC50 was 806 nM.
In the case of `COc1ccc(CN2CCN(CCCCNC(=O)c3ccc(NC(=O)c4ccc(Cl)cc4)cc3)CC2)c(OC)c1`, the XC50 is 890 nM.
For `CN(CC(=O)Nc1cc(C(F)(F)F)ccc1-n1cncn1)Cc1ccc2ccccc2c1` the value was 232 nM; for `CN(C)Cc1ccc(O)c(-c2ccc(C(C)(C)C)cc2)n1`, 1080 nM; for `COc1cc(Cc2cnc(N)nc2N)cc(OCCCCCCN2C(=O)c3ccccc3C2=O)c1OC`, 1100 nM.
As to `N#Cc1ccc(CCNc2nccc(-c3cccc(CN4CCNCC4)c3)n2)cc1`, the XC50 was 1250 nM.
`CCN(CC)CC(O)c1cc(-c2ccc(C)cc2)nc2c(C)cc(C)cc12` (stereo unspecified) came in with an XC50 of 171 nM.
As to `COc1ccc(Nc2nccc(N3CCC(NC(=O)C(C)c4ccc(Cl)cc4)C3)n2)cc1` (stereo unspecified), the XC50 is 1010 nM.
Turning to `Cc1noc(C)c1-c1cccc(CNCc2cccc(-c3ccc(-c4nc5ccccc5[nH]4)cc3)c2)c1`, the XC50 worked out at 228 nM.
Consider `Cc1nc(N)nc(N)c1OCc1ccc(Cl)c(Cl)c1`, for which the XC50 worked out at 131 nM.
For `Cc1cc(N[C@@H](Cc2ccccc2)C(=O)Nc2ccccc2)nc(NCCc2ccccc2)n1`, the XC50 worked out at 871 nM.
`CN(C)c1ccc(-c2csc(C(=O)NCC3CCN(CC4CCCCC4)C3)c2)cc1` (stereo unspecified) had an XC50 of 1140 nM.
Take `Cc1nc(-c2ccc(-c3ccc(NC(=O)Nc4ccc(I)c(OCCN(C)C)c4)cc3)c(C)c2)no1`: the XC50 came out at 372 nM.
The molecule `O=C(Nc1ccc(Cn2ncc(N3CCNCC3)c(Cl)c2=O)cc1)Nc1ccc(-c2ccccc2)cc1` returned an XC50 of 591 nM.
Take `CC(C)C(NC(=O)Cc1cccc2ccccc12)C(=O)Nc1cccc(C#N)c1` (stereo unspecified): the XC50 was determined as 656 nM.
Molecule `Cc1cc(N[C@@H](CC(C)C)C(=O)NCc2cccc(F)c2)nc(NCCc2ccccc2)n1` had an XC50 of 1080 nM.
For `CN1CCN(c2cc3c(cc2Cl)CCN3C(=O)Cc2ccc(Cl)c(NC(=O)Nc3cccc(C#N)c3)c2)CC1` the value was 637 nM; for `COc1ccc(-c2ccc(NC(=O)c3cccc(Cl)c3)c(F)c2)cc1CNC(C)C`, 895 nM; for `Cc1cc(Nc2cccc(C#N)c2)nc(Nc2ccccc2C)n1`, 861 nM.
With `COc1ccc(-c2ccc(NC(=O)c3ccc(C#N)cc3)cc2)cc1CN(C)CCO` the figure was 629 nM.
Molecule `Cc1cccc2nc(-c3ccc(-c4ccc(CNC(C)C)cc4)cc3)[nH]c12` registered an XC50 of 676 nM.
On to `COc1ccc(CCNC(=O)c2ccc(-n3cc(NC(=O)c4cccnc4)cn3)cc2)cc1OC`, for which the XC50 is 1070 nM.
In the case of `CCCCCCCc1c(C)[nH]c2ccc(F)cc2c1=O`, the XC50 was 289 nM.
`CN1CCN(CCCN(Cc2csc(-c3ccc(CNCc4ccccc4)cc3)n2)S(=O)(=O)c2ccccc2)CC1`: the XC50 is 773 nM.
As to `COc1cc(C(=O)N2CCOC(CCN3CCC(c4ccc(Cl)cc4)CC3)(c3ccc(Cl)c(Cl)c3)C2)cc(OC)c1OC` (stereo unspecified), the XC50 worked out at 179 nM.
With `C[C@@H]([C@@H](CCCCc1ccccc1)C(=O)N[C@H](C(=O)Nc1cccnc1)C(C)(C)C)N(O)C=O` the figure was 929 nM; with `COc1cc2nc(NCCc3ccccc3)nc(NCc3cc(C)no3)c2cc1OC`, 239 nM; with `CCc1cn2c3c(cc(C(=O)N[C@@H](Cc4ccccc4)[C@H](O)CNC4CCCCC4)cc13)N(CC)S(=O)(=O)CC2`, 31.4 nM.
For `Cc1ccc(S(=O)(=O)Nc2ccc(Nc3nccc(Nc4cccc5[nH]ncc45)n3)cc2)cc1` the value was 958 nM; for `COc1cc(OC)c(OC)cc1CN1CCC2(CC1)CN(Cc1ccc(Cl)c(Cl)c1)C(=O)O2`, 815 nM; for `O=C(/C=C/c1ccc(Cl)c(Cl)c1)NCCCCCN1CCC(NC(=O)Nc2cc(Cl)ccc2Cl)CC1`, 433 nM.
The molecule `COc1ccc(CCNCc2ccc3nc(N)c(C)cc3c2)cc1` showed an XC50 of 992 nM.
With `CC1CCN(CC[C@H]2CCCN2S(=O)(=O)c2cccc(NC(=O)c3cc4ccccc4s3)c2)CC1`, the XC50 stood at 830 nM.
`CCCN1CCN(CCCCNc2c3ccccc3nc3ccccc23)CC1` yielded an XC50 of 409 nM.
`CC(=O)Nc1ccc(S(=O)(=O)Nc2ccc(Nc3nc(C)cc(N4CCCCC4)n3)cc2)cc1` had an XC50 of 779 nM.
With `CC(Oc1ccc(Cl)cc1)C(=O)Nc1cc(C(F)(F)F)ccc1N1CCOCC1` (stereo unspecified) the figure was 532 nM; with `Oc1cccc(C2CCCN(Cc3cccc4cc[nH]c34)C2)c1` (stereo unspecified), 507 nM.
`CCc1cn2c3c(cc(C(=O)N[C@@H](Cc4ccccc4)[C@H](O)CNCc4ccccc4)cc13)N(C)S(=O)(=O)CC2` registered an XC50 of 664 nM.
Consider `O=C(c1ccc([N+](=O)[O-])o1)N1CCC(Cc2ccc(C(F)(F)F)cc2)CC1`, for which the XC50 turned out to be 166 nM.
On to `CN1CCN(c2ccnc3ccc(NC(=O)Cc4cccc(Cl)c4Cl)cc23)CC1`, for which the XC50 was 791 nM.
Take `CS(=O)(=O)N(c1ccccc1)c1cc(C(=O)N[C@@H](Cc2ccccc2)[C@H](O)CNC2CC2)cc(N2CCCC2=O)c1`: the XC50 amounted to 305 nM.
As to `Cc1c(F)cc(C(=O)NC2CC2)cc1-c1ccc2c(cnn2S(=O)(=O)c2ccc(Cl)s2)c1`, the XC50 worked out at 391 nM.
With `O=C(NC1CCCCC1)N(Cc1ccc(-c2ccc(CNC3CCCC3)cc2)cc1)C1CCN(Cc2ccccc2)CC1` the figure was 780 nM.
Regarding `Cc1ccccc1CNc1noc(-c2sccc2Br)n1`, the XC50 was 380 nM.
On to `CC1(C)NC(N)=NC(=N)N1OCCCOc1ccccc1Cl`, for which the XC50 stood at 3.2 nM.
The molecule `Cc1ccccc1CCNC(=O)c1cnc(N2CCN(c3ccncc3)CC2)c(Cl)c1` showed an XC50 of 1060 nM.
With `O=C(COc1ccccc1)N(Cc1ccc(-c2ccc(CNC3Cc4ccccc4C3)cc2)cc1)C1CCNCC1` the figure was 1020 nM; with `CCC(C)(C)c1ccc2nc(N)nc(N)c2c1C`, 5.21 nM.
`COc1ccc(N2C(N)=NC(N)=NC2(C)C)cc1`: the XC50 amounted to 113 nM.
In turn, `Cc1cccc2nc(-c3cccc(-c4cccc(CNCCc5cccn5C)c4)c3)[nH]c12` showed an XC50 of 733 nM.
`COc1cc2nc(N(C)C3CCN(Cc4ccccc4)CC3)nc(N)c2cc1OC` returned an XC50 of 334 nM.
The molecule `Cc1ccc(-n2cc(CNCC3CCN(CCO)CC3)c(-c3ccc(F)cc3)n2)cc1` came in with an XC50 of 2000 nM.
`COc1cc2c(cc1COc1ccccc1)CCN1Cc3cc(OC)c(OC)cc3CC21` (stereo unspecified) gave an XC50 of 150 nM.
`OC1(C(F)(F)F)CC(c2ccccc2)=NN1c1nncc(-c2ccccc2)n1` (stereo unspecified): the XC50 came to 735 nM.
Molecule `Cc1cc(-c2ccc3occ(CCN)c3c2)cnc1N` came in with an XC50 of 877 nM.
With `FC(F)(F)c1ccc2[nH]c(-c3ccc(-c4cccc(CNCc5cnn(-c6ccccc6)n5)c4)s3)nc2c1` the figure was 329 nM.
The molecule `CCCCc1ccc(C(=O)NC2CCN(C[C@H](O)c3ccnc4ccc(OC)cc34)CC2)cc1` displayed an XC50 of 728 nM.
`Cc1cc(N[C@@H](Cc2ccccc2)C(=O)Nc2ccccc2)nc(NCCc2ccc(F)cc2)n1` returned an XC50 of 860 nM.
Consider `CCCC(=O)Nc1ccc(Nc2nc(C)cc(N3CCCC3)n2)cc1`, for which the XC50 was 1490 nM.
On to `COc1ccc2c(OC)ccc(CNCCCCCCNCc3ccc(OC)c4ccc(OC)cc34)c2c1`, for which the XC50 stood at 399 nM.
Molecule `CCOc1cc2ncnc(Nc3ccc(OCc4c(F)cccc4F)c(OC)c3)c2cc1OCC` yielded an XC50 of 821 nM.
With `CCCc1cc(NC2CCN(C)CC2)nc(Nc2cccc(OC)c2)n1`, the XC50 was 765 nM.
The molecule `CCCCNCc1ccc(OCc2cccc(COc3ccc(CNCCCC)cc3I)c2)c(I)c1` displayed an XC50 of 1120 nM.
As for `CC(CN(C)C)C(=O)Nc1cccc(-c2cccc(-c3nc4cc(F)ccc4[nH]3)c2)c1` (stereo unspecified), the XC50 stood at 826 nM.
With `CC(C)C[C@H](Nc1ccc(C#N)c2ccccc12)C(=O)N[C@@H]1CCCc2ccccc21` the figure was 763 nM.
For `O=C(Nc1cc(F)cc(-c2cccnc2)c1)c1ccc2c(=O)n(Cc3ccccc3)cnc2c1`, the XC50 came to 1330 nM.
`CC(Cc1ccc(CSC(C)C)cc1)NCC(O)c1cccc(Cl)c1` (stereo unspecified): the XC50 amounted to 603 nM.
`Oc1cccc(Nc2nc(NCc3ccco3)c3ccccc3n2)c1` showed an XC50 of 415 nM.
For `Cc1c(CN2CCC(N3CCC(C(=O)NC4CC4)CC3)CC2)[nH]c2c(Cl)cccc12` the value was 1190 nM; for `CCN(CCO)CCc1cccc(Nc2nccc(-c3c(-c4ccc(NC(=O)C(C)(C)C)cc4)nn4ccccc34)n2)c1`, 714 nM; for `Cc1cc(Nc2ccc3ccccc3c2)n2ncnc2n1`, 173 nM.
Molecule `COc1ccc(-c2cnc3ccc(NC4CCC(O)CC4)nn23)cn1` (stereo unspecified) gave an XC50 of 715 nM.
`COc1cc(Nc2nccc(N3CCC(NC(=O)Nc4cccc(C(C)=O)c4)C3)n2)cc(OC)c1OC` (stereo unspecified) registered an XC50 of 973 nM.
`CCn1ccc2c(N3CCCS3(=O)=O)cc(C(=O)N[C@@H](Cc3ccccc3)[C@H](O)CNC(C)(C)c3cccc(OC)c3)cc21`: the XC50 was found to be 41.6 nM.
